Assay results: patent publication US20170209579A1, “NON-INVASIVE RADIOFREQUENCY FIELD TREATMENT FOR CANCER THERAPY” (Baylor College of Medicine, priority 2014, published 2017)

Test system: Rad51
Experiment: Colocalization of Rad51 with γ-H2AX foci at gemcitabine-stalled replication forks
Format: cell-based, human
Details: Hep3B
Source text: FIGS. 15A-15D provide inhibition of Mre11 and Rad51 recruitment at gemcitabine-stalled replication forks by hyperthermia. (15A) Hep3B cells were exposed to hyperthermia and/or gemcitabine. (15B) and (15C) Mre11 and Rad51 were recruited at gemcitabine-stalled replication forks. […] Scale bar=10 μm. (15D) Quantification of data from colocalization experiments. Data are mean Pearson correlation (a.u.) and error bars represent the SD from three independent experiments with 10 replicates each (*P<0.05, **P<0.01). Gem=Gemcitabine; HT=Hyperthermia; N/A=not applicable, i.e., in hyperthermia treated cells BrdU staining is not detected as distinct foci and therefore correlation could not be quantified; ns=not significant, by the Student unpaired two-sided t test in comparison with gemcitabine alone group. Also, see FIGS. 22-24. […]
For immunocytochemistry assay, an indirect immunofluorescence approach was used. […] Cells from an exponentially growing culture were counted and approximately 50,000 cells were seeded in each well of a 12-well plate. […]
The slides were sealed with a conventional nail polish hardener and stored at 4° C. until imaging. […] Exposure settings were set to maximize dynamic range initially and then kept constant across multiple samples to allow quantitative comparisons. […]

Nc1ccn([C@@H]2O[C@H](CO)[C@@H](O)C2(F)F)c(=O)n1 [gemcitabine, 2′,2′-difluoro 2′-deoxycytidine]
mean Pearson correlation, Rad51 with γ-H2AX foci (gemcitabine alone (10 μg/ml)): 0.24
mean Pearson correlation, Rad51 with γ-H2AX foci (hyperthermia 42.5° C. 75 minutes then gemcitabine 10 μg/ml): 0.44
